Literature values in patent US20220331235A1, “COMPOSITIONS FOR ORAL MICROADHESIVE DOSAGE FORMS” (FP NUTRACEUTICALS, LLC, priority 2018, published 2022).
Values belong to the compound of their own block, whether it stands above or below them.

What was measured:
[1] = rat brain
[2] = vitamin B6: from food or supplements

Compound: O=C([O-])c1ccccn1.O=C([O-])c1ccccn1.[Zn+2] [Zn-picolinate]
- plasma zinc rankings based on area under the curve and rank results per person: glycinate>gluconate>picolinate=oxide

Compound: O=C([O-])c1cc(=O)[nH]c(=O)[nH]1.[Li+] [lithium orotate]
- level in the brain compared to the carbonate form [1]: three-fold higher

Compound: NCC(=O)[O-].NCC(=O)[O-].[Zn+2] [zinc glycinate]
- bioavailability among four forms of zinc (oxide, picolinate, gluconate, glycinate) (acute uptake): highest bioavailability
- plasma zinc rankings based on area under the curve and rank results per person: glycinate>gluconate>picolinate=oxide
- increase in bioavailability over zinc gluconate (versus second most-bioavailable form): 43.4%

Compound: zinc gluconate
- plasma zinc rankings based on area under the curve and rank results per person: glycinate>gluconate>picolinate=oxide

Further lines, results first:

- plasma zinc rankings based on area under the curve and rank results per person: glycinate>gluconate>picolinate=oxide
Compound: [O-2].[Zn+2] [Zn-oxide]

- bioavailability [2]: 75-100%
Compound: Cc1ncc(CO)c(CO)c1O [vitamin B6, pyridoxine]

- bioavailability [2]: 1-2%
Compound: cobalamin [vitamin B12]
